From patent EP4620959A1, “CYCLIC COMPOUNDS USED AS MULTI-TARGET KINASE INHIBITORS AND PREPARATION METHOD THEREFOR” (Shanghai Institute of Organic Chemistry, Chinese Academy of …, priority 2022, dated 2024)
Values belong to the molecule of their own block, whether it stands above or below them.

What was measured:
LRRK2 wt = LRRK2 wt (Homo sapiens, UniProt Q5S007); test: Kinase activity inhibition assay (ADP-Glo), LRRK2 wt; format: biochemical; conditions: for inhibition at 0.1 µM: read-out: LRRK2 wt inhibition rate at 100 nM, ATP 20 µM, compound at 100 nM
Sequence of LRRK2 wt (Q5S007 whole entry): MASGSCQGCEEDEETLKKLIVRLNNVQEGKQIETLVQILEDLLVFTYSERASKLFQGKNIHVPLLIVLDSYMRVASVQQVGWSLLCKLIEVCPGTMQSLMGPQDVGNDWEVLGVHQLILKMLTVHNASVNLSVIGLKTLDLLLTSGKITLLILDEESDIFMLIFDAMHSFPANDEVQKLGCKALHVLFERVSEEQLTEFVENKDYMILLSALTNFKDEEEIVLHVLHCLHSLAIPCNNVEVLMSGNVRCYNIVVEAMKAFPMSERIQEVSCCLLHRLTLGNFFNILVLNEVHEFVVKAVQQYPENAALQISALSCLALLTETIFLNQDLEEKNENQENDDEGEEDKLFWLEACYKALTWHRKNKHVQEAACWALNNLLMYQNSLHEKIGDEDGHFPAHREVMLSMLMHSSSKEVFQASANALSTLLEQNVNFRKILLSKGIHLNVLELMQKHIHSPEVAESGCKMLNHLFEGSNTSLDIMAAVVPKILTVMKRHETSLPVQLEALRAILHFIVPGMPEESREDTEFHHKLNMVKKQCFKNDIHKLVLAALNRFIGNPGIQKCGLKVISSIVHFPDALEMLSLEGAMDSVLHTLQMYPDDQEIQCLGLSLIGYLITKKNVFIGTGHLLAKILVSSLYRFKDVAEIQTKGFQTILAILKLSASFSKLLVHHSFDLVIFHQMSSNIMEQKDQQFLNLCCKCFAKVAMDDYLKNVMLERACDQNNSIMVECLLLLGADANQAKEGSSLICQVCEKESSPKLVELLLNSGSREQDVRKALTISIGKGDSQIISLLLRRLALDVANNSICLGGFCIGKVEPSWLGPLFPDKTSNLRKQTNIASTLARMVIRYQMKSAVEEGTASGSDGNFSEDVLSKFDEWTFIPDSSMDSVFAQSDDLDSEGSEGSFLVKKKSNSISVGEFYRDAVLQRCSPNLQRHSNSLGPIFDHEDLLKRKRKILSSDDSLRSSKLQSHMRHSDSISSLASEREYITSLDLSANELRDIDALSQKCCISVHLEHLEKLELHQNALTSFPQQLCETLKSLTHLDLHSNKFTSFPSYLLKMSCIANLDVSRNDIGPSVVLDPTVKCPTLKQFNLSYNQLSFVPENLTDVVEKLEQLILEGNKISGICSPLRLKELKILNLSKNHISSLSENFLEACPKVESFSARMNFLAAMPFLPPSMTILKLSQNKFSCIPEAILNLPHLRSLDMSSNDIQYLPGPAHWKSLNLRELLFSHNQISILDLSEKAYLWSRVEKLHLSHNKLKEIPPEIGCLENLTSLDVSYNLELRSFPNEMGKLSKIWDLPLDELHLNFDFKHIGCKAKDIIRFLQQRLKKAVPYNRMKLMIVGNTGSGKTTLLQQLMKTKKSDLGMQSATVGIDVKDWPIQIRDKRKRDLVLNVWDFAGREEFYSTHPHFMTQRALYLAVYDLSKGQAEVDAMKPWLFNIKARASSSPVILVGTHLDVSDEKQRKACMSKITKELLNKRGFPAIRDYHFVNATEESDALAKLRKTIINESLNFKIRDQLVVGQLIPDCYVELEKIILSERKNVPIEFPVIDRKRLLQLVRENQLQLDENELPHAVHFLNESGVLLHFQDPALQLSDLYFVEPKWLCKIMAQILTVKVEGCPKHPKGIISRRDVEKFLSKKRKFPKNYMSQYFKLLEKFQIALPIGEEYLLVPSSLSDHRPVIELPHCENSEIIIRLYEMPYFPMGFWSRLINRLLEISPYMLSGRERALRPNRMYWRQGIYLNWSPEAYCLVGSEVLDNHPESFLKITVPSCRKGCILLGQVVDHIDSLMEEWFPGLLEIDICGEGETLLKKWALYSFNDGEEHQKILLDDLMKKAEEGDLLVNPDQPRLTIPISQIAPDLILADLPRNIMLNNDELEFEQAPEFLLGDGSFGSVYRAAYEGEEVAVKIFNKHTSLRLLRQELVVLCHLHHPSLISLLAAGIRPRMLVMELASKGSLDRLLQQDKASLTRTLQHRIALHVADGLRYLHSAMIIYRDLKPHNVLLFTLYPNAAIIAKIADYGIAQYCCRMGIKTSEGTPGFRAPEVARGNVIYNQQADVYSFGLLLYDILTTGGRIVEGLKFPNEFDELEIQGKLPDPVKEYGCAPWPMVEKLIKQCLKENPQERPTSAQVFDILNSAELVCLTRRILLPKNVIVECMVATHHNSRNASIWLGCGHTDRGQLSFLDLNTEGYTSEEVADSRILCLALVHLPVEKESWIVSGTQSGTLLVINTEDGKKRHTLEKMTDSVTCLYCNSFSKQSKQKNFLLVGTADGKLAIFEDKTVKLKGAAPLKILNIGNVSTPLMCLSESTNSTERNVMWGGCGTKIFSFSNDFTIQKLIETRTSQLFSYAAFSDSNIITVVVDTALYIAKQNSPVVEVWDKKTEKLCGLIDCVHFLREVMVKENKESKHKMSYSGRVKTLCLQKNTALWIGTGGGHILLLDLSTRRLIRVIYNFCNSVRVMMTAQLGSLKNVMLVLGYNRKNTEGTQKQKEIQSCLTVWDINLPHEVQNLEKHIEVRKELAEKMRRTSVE
Description: (§1) The kinase activity inhibition assay was performed by ICE Bioscience (Beijing) using ADP-Glo and HTRF methods.
(§2) Table 1.1-1 ADP-Glo Buffer
(§3) Table 1.2-1 ADP-Glo Kinase and Substrate Formulation
(§4) SD is the standard error, and AVE is the average value. Table 2-1 LRRK2 Activity Inhibition Test Results

LRRK2 G2019S = LRRK2 G2019S (Homo sapiens, UniProt Q5S007, G2019S); test: Kinase activity inhibition assay (ADP-Glo), LRRK2 G2019S; format: biochemical; conditions: for inhibition at 0.1 µM: read-out: LRRK2 G2019S inhibition rate at 100 nM, ATP 100 µM, compound at 100 nM
Sequence of LRRK2 G2019S (Q5S007 whole entry G2019S): as the sequence (Q5S007 whole entry) above, with G2019S counted along it
Description: as §1, §2, §3, §4

FGFR1 = FGFR1 (Homo sapiens, UniProt P11362); test: Kinase activity inhibition assay (HTRF), FGFR1; format: biochemical; conditions: ATP 40 µM
Sequence of FGFR1 (P11362 22-822): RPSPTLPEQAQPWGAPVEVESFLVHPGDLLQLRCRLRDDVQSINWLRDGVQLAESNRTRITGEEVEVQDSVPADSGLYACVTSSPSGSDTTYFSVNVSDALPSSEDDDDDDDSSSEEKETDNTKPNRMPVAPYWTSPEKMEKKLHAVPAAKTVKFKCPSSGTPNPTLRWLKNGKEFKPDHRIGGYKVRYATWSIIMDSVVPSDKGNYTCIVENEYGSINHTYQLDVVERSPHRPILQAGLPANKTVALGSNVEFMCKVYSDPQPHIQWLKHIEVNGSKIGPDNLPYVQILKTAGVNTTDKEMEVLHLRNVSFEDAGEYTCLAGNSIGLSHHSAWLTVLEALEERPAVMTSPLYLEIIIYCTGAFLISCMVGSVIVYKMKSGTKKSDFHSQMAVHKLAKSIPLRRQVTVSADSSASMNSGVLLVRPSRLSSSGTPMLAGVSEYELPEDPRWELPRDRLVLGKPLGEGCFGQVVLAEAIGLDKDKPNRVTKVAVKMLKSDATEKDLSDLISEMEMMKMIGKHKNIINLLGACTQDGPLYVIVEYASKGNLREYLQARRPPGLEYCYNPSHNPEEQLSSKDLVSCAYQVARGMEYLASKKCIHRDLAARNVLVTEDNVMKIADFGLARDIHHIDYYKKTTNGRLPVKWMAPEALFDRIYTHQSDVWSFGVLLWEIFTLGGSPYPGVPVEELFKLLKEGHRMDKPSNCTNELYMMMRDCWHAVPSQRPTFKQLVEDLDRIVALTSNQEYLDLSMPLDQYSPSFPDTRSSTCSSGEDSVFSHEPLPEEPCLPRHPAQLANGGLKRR
Description: as §1
(§5) Table 1.2-2 HTRF Kinase and Substrate Formulation
(§6) • 1) 2×ATP/substrate solution and 2×kinase/metal ion solution were prepared using kinase reaction buffer; • 2) 20 nL (ADP-GLo) or 40 nL (HTRF) of compound dilution was transferred using Echo 655 onto a 384-well assay plate; after centrifugation, 2 µL of 2×kinase and metal ion solution were added to the 384-well assay plate, centrifuged at 1000 rpm for 1 min, and incubated at 25°C for 10 min; • 3) 2 µL of 2×substrate and ATP solution were added to the 384-well assay plate, centrifuged at 1000 rpm for 1 min, and incubated at 25°C for 60 min. • 4) 4 µL of ADP-Glo was transferred to the 384-well assay plate, entrifuged at 1000 rpm for 1 min, and incubated at 25°C for 40 min. • 5) 8 µL of detection solution was transferred to the 384-well assay plate, centrifuged at 1000 rpm for 1 min, and incubated at 25°C for 40 min. • 6) Luminescence signals was read using a multifunctional microplate reader.
as §4

KDR = KDR (Homo sapiens, UniProt P35968); test: Kinase activity inhibition assay (HTRF), KDR; format: biochemical; conditions: ATP 4 µM
Sequence of KDR (P35968 20-1356): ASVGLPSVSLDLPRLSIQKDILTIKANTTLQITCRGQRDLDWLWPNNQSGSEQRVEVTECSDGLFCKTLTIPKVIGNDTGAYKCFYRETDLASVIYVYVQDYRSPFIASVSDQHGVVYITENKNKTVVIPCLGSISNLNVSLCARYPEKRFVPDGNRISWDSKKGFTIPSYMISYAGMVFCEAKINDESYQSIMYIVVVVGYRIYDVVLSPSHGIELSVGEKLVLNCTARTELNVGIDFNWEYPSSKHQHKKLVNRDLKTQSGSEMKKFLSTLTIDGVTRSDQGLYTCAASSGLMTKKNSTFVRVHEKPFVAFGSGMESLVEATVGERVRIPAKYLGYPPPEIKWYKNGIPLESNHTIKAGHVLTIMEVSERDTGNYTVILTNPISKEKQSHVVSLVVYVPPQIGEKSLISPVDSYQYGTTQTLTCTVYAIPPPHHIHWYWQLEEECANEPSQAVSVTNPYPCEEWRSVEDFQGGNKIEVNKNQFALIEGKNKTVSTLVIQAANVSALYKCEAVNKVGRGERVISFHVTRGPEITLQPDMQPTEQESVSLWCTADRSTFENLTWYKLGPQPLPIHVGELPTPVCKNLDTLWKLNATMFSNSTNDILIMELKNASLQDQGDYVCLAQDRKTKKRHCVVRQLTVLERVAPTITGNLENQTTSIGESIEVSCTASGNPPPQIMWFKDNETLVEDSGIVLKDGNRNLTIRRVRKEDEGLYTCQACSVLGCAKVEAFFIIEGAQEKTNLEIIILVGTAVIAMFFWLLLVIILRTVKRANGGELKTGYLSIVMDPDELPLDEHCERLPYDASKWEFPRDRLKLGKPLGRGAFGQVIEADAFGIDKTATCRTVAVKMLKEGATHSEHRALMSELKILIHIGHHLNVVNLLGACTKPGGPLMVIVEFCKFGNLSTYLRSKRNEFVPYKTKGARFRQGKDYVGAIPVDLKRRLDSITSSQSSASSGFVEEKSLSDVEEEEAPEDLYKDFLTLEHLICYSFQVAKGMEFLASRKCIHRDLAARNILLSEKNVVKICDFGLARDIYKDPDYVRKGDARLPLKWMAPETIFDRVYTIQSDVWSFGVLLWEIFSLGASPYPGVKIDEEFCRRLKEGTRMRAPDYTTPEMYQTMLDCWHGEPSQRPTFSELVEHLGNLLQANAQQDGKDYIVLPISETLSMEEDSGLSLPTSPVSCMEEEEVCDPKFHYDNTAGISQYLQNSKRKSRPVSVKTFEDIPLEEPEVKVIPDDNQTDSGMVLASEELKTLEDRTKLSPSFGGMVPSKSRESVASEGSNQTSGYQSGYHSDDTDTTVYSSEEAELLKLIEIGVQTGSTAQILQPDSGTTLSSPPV
Description: as §1, §5, §4

RET V804L = RET V804L (Homo sapiens, UniProt P07949, V804L); test: Kinase activity inhibition assay (HTRF), RET V804L; format: biochemical; conditions: ATP 5 µM
Description: as §1, §5, §6, §4

PDGFRα = PDGFRα (Homo sapiens, UniProt P16234); test: Kinase activity inhibition assay (HTRF), PDGFRα; format: biochemical; conditions: ATP 0.5 µM
Description: as §1, §5, §6, §4

FGFR4 V550L = FGFR4 V550L (Homo sapiens, UniProt P22455, V550L); test: Kinase activity inhibition assay (ADP-Glo), FGFR4 V550L; format: biochemical; conditions: ATP 20 µM
Description: as §1, §2, §3, §4

FGFR3 V555M = FGFR3 V555M (Homo sapiens, UniProt P22607, V555M); test: Kinase activity inhibition assay (HTRF), FGFR3 V555M; format: biochemical; conditions: ATP 20 µM
Description: as §1, §5, §6, §4

TYRO3 = TYRO3 (Homo sapiens, UniProt Q06418); test: Kinase activity inhibition assay (HTRF), TYRO3; format: biochemical; conditions: ATP 0.5 µM
Description: as §1, §5, §4

FGFR2 V564F = FGFR2 V564F (Homo sapiens, UniProt P21802, V564F); test: Kinase activity inhibition assay (HTRF), FGFR2 V564F; format: biochemical; conditions: ATP 15 µM
Description: as §1, §5, §6, §4

FGFR3 K650M = FGFR3 K650M (Homo sapiens, UniProt P22607, K650M); test: Kinase activity inhibition assay (HTRF), FGFR3 K650M; format: biochemical; conditions: ATP 12 µM
Description: as §1, §5, §4

DYRK2 = DYRK2 (Homo sapiens, UniProt Q92630); test: Kinase activity inhibition assay (ADP-Glo), DYRK2; format: biochemical; conditions: ATP 5 µM
Description: as §1, §2, §3, §4

FGFR4 V550M = FGFR4 V550M (Homo sapiens, UniProt P22455, V550M); test: Kinase activity inhibition assay (HTRF), FGFR4 V550M; format: biochemical; conditions: ATP 60 µM
Description: as §1, §5, §4

[1] = Oral pharmacokinetic study in rats; conditions: rat, in vivo, 5 mg/kg, male SD rats, oral gavage, dose 5mpk, 1% MC
Description: Drug preparation: 1% MC was added to the compound, ground, and shaken uniformly. Samples were collected at 5 min, 15 min, 30 min, 1 h, 2 h, 4 h, and 8 h post-dose, followed by analysis using liquid chromatography-tandem mass spectrometry (LC-MS/MS). Table 3 PK Data of Selected Compounds

FLT1 = FLT1 (Homo sapiens, UniProt P17948); test: Kinase activity inhibition assay (ADP-Glo), FLT1; format: biochemical; conditions: ATP 50 µM
Description: as §1, §2, §3, §6, §4

FGFR4 N535K = FGFR4 N535K (Homo sapiens, UniProt P22455, N535K); test: Kinase activity inhibition assay (HTRF), FGFR4 N535K; format: biochemical; conditions: ATP 100 µM
Description: as §1, §5, §6, §4

FGFR3 = FGFR3 (Homo sapiens, UniProt P22607); test: Kinase activity inhibition assay (HTRF), FGFR3; format: biochemical; conditions: ATP 50 µM
Description: as §1, §5, §6, §4

FGFR2 = FGFR2 (Homo sapiens, UniProt P21802); test: Kinase activity inhibition assay (HTRF), FGFR2; format: biochemical; conditions: ATP 20 µM
Description: as §1, §5, §6, §4

FGFR3 V555L = FGFR3 V555L (Homo sapiens, UniProt P22607, V555L); test: Kinase activity inhibition assay (HTRF), FGFR3 V555L; format: biochemical; conditions: ATP 20 µM
Description: as §1, §5, §6, §4

FLT3 = FLT3 (Homo sapiens, UniProt P36888); test: Kinase activity inhibition assay (HTRF), FLT3; format: biochemical; conditions: ATP 2 µM
Description: as §1, §5, §6, §4

FLT4 = FLT4 (Homo sapiens, UniProt P35916); test: Kinase activity inhibition assay (HTRF), FLT4; format: biochemical; conditions: ATP 32 µM
Description: as §1, §5, §6, §4

FGFR1 V561M = FGFR1 V561M (Homo sapiens, UniProt P11362, V561M); test: Kinase activity inhibition assay (HTRF), FGFR1 V561M; format: biochemical; conditions: ATP 20 µM
Sequence of FGFR1 V561M (P11362 22-822 V561M): as the sequence (P11362 22-822) above, with V540M counted along it
Description: as §1, §5, §6, §4

FGFR2 V564I = FGFR2 V564I (Homo sapiens, UniProt P21802, V564I); test: Kinase activity inhibition assay (HTRF), FGFR2 V564I; format: biochemical; conditions: ATP 20 µM
Description: as §1, §5, §6, §4

FGFR4 = FGFR4 (Homo sapiens, UniProt P22455); test: Kinase activity inhibition assay (HTRF), FGFR4; format: biochemical; conditions: ATP 50 µM
Description: as §1, §5, §6, §4

FGFR2 N549H = FGFR2 N549H (Homo sapiens, UniProt P21802, N549H); test: Kinase activity inhibition assay (HTRF), FGFR2 N549H; format: biochemical; conditions: ATP 9 µM
Description: as §1, §5, §4

Structure (SMILES): Cc1nn2cc1Nc1ncc3c(Cl)nn(c3n1)CCCNC(=O)C2(C)C [Example T-8, (E)-1^3-Chloro-3^3,4,4-trimethyl-1^1H,3^1H-2,6-diaza-1(6,1)pyrazolo[3,4-d]pyrimidine-3(4,1)-pyrazolacyclononan-5-one]
- inhibition at 0.1 µM (LRRK2 wt): 64%
- inhibition at 0.1 µM (LRRK2 G2019S): 52%

Structure (SMILES): Cc1nn2cc1Nc1ncc(C(F)(F)F)c(n1)NCCCNC(=O)C2 [Example T-14, (E)-3^3-Methyl-1^5-(trifluoromethyl)-3^1H-2,6,10-triaza-1(2,4)-pyrimidina-3(4,1)-pyrazolacyclodecan-5-one]
- inhibition at 0.1 µM (LRRK2 wt): 87%
- inhibition at 0.1 µM (LRRK2 G2019S): 84%

Structure (SMILES): Cc1nn2cc1Nc1ncc(C(F)(F)F)c(n1)NCCNC(=O)C2 [Example T-15, (E)-3^3-Methyl-1^5-(trifluoromethyl)-3^1H-2,6,9-triaza-1(2,4)-pyrimidina-3(4,1)-pyrazolacyclononan-5-one]
- inhibition at 0.3 µM (LRRK2 wt; read-out: LRRK2 wt inhibition rate @300 nM, ATP 20 µM, compound at 300 nM): 5%
- inhibition at 0.1 µM (LRRK2 G2019S): -9.6%

Structure (SMILES): Cc1nn2cc1Nc1ncc3c(Cl)cc(n3n1)CCCNC(=O)C2(C)C [Example T-25, (1^1Z,3^4E)-1^5-Chloro-3^3,4,4-trimethyl-3^1H-2,6-diaza-1(2,7)-pyrrolo[2,1-f][1,2,4]triazine-3(4,1)-pyrazolacyclononan-5-one]
- IC50 (FGFR1): 180 nM
- IC50 (KDR): 7.67 nM
- IC50 (RET V804L): 43.9 nM
- IC50 (PDGFRα): 67 nM
- IC50 (FGFR4 V550L): 208 nM
- IC50 (FGFR3 V555M): 5.07 nM
- IC50 (TYRO3): 56.1 nM
- IC50 (FGFR2 V564F): 1.73 nM
- IC50 (FGFR3 K650M): 14.1 nM
- IC50 (DYRK2): 27.7 nM
- IC50 (FGFR4 V550M): 105 nM
- Cmax [1]: 630 ng/mL
- Tmax [1]: 1 h
- half-life [1]: 1.73 h
- AUC(0-t) at 8 h ([1]; read-out: AUC0-8): 2210 ng·h/mL
- IC50 (FLT1): 8.83 nM
- IC50 (FGFR4 N535K): 621 nM
- IC50 (FGFR3): 67.5 nM
- IC50 (FGFR2): 31.9 nM
- IC50 (FGFR3 V555L): 8.81 nM
- IC50 (FLT3): 88.1 nM
- IC50 (FLT4): 19.2 nM
- IC50 (FGFR1 V561M): 13.8 nM
- IC50 (FGFR2 V564I): 60.2 nM
- IC50 (FGFR4): 58.3 nM
- IC50 (FGFR2 N549H): 17.4 nM

Continued, values first:

- inhibition at 0.1 µM (LRRK2 wt): 5.7%
- inhibition at 0.3 µM (LRRK2 G2019S; read-out: LRRK2 G2019S inhibition rate @300 nM, ATP 100 µM, compound at 300 nM): 0.34%
Structure (SMILES): Cc1nn2cc1Nc1ncc(C(F)(F)F)c(n1)NCCNC(=O)C2(C)C [Example T-12, (E)-3^3,4,4-Trimethyl-1^5-(trifluoromethyl)-3^1H-2,6,9-triaza-1(2,4)-pyrimidina-3(4,1)-pyrazolacyclononan-5-one]

- inhibition at 0.1 µM (LRRK2 wt): 96%
- inhibition at 0.1 µM (LRRK2 G2019S): 92%
Structure (SMILES): Cc1nn2cc1Nc1ncc(C(F)(F)F)c(n1)NCCCCNC(=O)C2(C)C [Example T-13, (E)-3^3,4,4-Trimethyl-1^5-(trifluoromethyl)-3^1H-2,6,11-triaza-1(2,4)-pyrimidina-3(4,1)-pyrazolacycloundecan-5-one]

- inhibition at 0.1 µM (LRRK2 wt): 95.1%
Structure (SMILES): Cc1nn2cc1Nc1ncc(C(F)(F)F)c(n1)NC(C)CCNC(=O)C2(C)C (stereo not shown) [Example T-46, (E)-3^3,4,4,9-Tetramethyl-1^5-(trifluoromethyl)-3^1H-2,6,10-triaza-1(2,4)-pyrimidina-3(4,1)-pyrazolacyclodecan-5-one]
